According to publication PMC4933242, “Low or No Inhibitory Potency of the Canonical Galectin Carbohydrate-binding Site by Pectins and Galactomannans*” (The Journal of Biological Chemistry, 2016):
Where two headings read alike, the source gives them in different places.

Legend:
galectin-2 = molecular target: T1, galectin-2 (Homo sapiens, UniProt P05162); assay: Fluorescence anisotropy assay, galectin-2; assay type: binding; conditions: about 1 μM galectin, 0.1 or 0.02 μM probe; NI = no inhibition at highest concentration tested; read-out: Calculated Kd, Gal-2
T1 sequence (P05162 1-132): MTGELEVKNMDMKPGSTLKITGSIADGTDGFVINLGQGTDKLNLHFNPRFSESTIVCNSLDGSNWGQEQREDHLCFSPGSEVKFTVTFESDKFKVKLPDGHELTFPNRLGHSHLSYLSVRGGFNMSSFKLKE
Method: (§1) FA was used to analyze interactions of probes and ligands with galectins in solution, as described before ([41][–][44]). A PheraStarFS plate reader, with software PHERAstar Mars version 2.10 R3 (BMG, Offenburg, Germany), was used, and FA of fluorescein-tagged saccharide probes was measured with excitation at 485 nm and emission at 520 nm.
(§2) The anisotropy (A) is given in units of mA, where the theoretical maximum is 400, and the value for free fluorescein typically 23. All conditions were measured in at least two duplicate wells.
(§3) In this study, the effect of inhibitors of the saccharide probe/galectin interaction was tested in two ways. […] With structurally defined inhibitors (pure synthetic galacto-oligosaccharides, small galactomannans, and reference ligands) the molecular mass, molar concentrations, and number of binding sites (in this case one binding site per ligand) were known and their dissociation constants (Kd) could therefore be directly calculated, using the data from the FA assay as described in Sörme et al. ([41]). […] From this, the ratio of the molar concentration of the free inhibitor binding sites to their Kd value can be calculated, even if the FA assay cannot distinguish between the case when this is due to a few high affinity binding sites in the polysaccharide fraction or many of low affinity.

Gal-4C = molecular target: T2, Gal-4C (Homo sapiens, UniProt P56470); assay: Fluorescence anisotropy assay, galectin-4C; assay type: binding; conditions: about 1 μM galectin, 0.1 or 0.02 μM probe; NI = no inhibition at highest concentration tested; read-out: Calculated Kd, Gal-4C
T2 construct: Gal-4C
T2 sequence (P56470 194-323 limits assumed): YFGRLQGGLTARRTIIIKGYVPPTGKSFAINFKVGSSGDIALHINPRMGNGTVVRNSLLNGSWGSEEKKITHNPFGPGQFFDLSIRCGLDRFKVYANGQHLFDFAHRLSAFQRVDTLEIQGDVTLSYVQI
Method: as §1, §2
(§4) In this study, the effect of inhibitors of the saccharide probe/galectin interaction was tested in two ways. In the first, a fixed low concentration of fluorescein-tagged probe (0.1 μM) and galectin were mixed with a range of concentrations of inhibitor. An optimal probe was chosen for each galectin to permit use of as low as possible concentration of galectin, while still achieving a sufficient rise in anisotropy for a reliable measuring range ([42][–][44]). […] With structurally defined inhibitors (pure synthetic galacto-oligosaccharides, small galactomannans, and reference ligands) the molecular mass, molar concentrations, and number of binding sites (in this case one binding site per ligand) were known and their dissociation constants (Kd) could therefore be directly calculated, using the data from the FA assay as described in Sörme et al. ([41]). […] Even if the molar concentration of the inhibitor is not known, the anisotropy value at a given condition permits calculation of the molar concentration of free galectin, as described below, and from this what fraction of the galectin is bound by a given mass per volume concentration of inhibitor. From this, the ratio of the molar concentration of the free inhibitor binding sites to their Kd value can be calculated, even if the FA assay cannot distinguish between the case when this is due to a few high affinity binding sites in the polysaccharide fraction or many of low affinity.

galectin-3 [1] = molecular target: T3, galectin-3 (Homo sapiens, UniProt P17931); assay: Fluorescence anisotropy assay, galectin-3; assay type: binding; conditions: for Kd: about 1 μM galectin, 0.1 or 0.02 μM probe, NI = no inhibition at highest concentration tested, read-out: Calculated Kd, Gal-3
Method: as §1, §2, §4

galectin-8N = molecular target: T4, galectin-8N (Homo sapiens, UniProt O00214); assay: Fluorescence anisotropy assay, galectin-8N; assay type: binding; conditions: about 1 μM galectin, 0.1 or 0.02 μM probe; read-out: Calculated Kd, Gal-8N
T4 construct: the N-terminal CRD of galectin-8 (galectin-8N)
T4 sequence (O00214 19-152 limits assumed): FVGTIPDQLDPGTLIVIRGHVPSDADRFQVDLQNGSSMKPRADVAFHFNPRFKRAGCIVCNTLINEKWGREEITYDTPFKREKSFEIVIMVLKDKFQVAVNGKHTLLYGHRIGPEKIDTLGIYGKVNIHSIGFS
Method: as §1, §2, §3

galectin-9N = molecular target: T5, galectin-9N (Homo sapiens, UniProt O00182); assay: Fluorescence anisotropy assay, galectin-9N; assay type: binding; conditions: about 1 μM galectin, 0.1 or 0.02 μM probe; NI = no inhibition at highest concentration tested; read-out: Calculated Kd, Gal-9N
T5 construct: the N-terminal CRD of galectin-9 (galectin-9N)
Method: as §1, §2, §4

Gal-4N = molecular target: T6, Gal-4N (Homo sapiens, UniProt P56470); assay: Fluorescence anisotropy assay, galectin-4N; assay type: binding; conditions: about 1 μM galectin, 0.1 or 0.02 μM probe; NI = no inhibition at highest concentration tested; read-out: Calculated Kd, Gal-4N
T6 construct: Gal-4N
T6 sequence (P56470 19-150 limits assumed): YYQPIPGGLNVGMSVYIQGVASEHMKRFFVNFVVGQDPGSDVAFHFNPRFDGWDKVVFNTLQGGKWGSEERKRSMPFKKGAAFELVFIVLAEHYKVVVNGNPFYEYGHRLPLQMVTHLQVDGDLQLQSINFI
Method: as §1, §2, §3

galectin-1 = galectin-1 (Homo sapiens, UniProt P09382); assay: Fluorescence anisotropy assay, inhibition of probe binding to galectin-1; conditions: about 1 μM galectin, 0.1 or 0.02 μM probe; 4 mM β-mercaptoethanol; NI = no inhibition at highest concentration tested; read-out: Calculated Kd, Gal-1
Method: as §1, §2, §4

Gal-9C = molecular target: T7, Gal-9C (Homo sapiens, UniProt O00182); assay: Fluorescence anisotropy assay, galectin-9C; assay type: binding; conditions: about 1 μM galectin, 0.1 or 0.02 μM probe; read-out: Calculated Kd, Gal-9C
T7 construct: Gal-9C
Method: as §1, §2, §4

galectin-3 [2] = molecular target: T3, galectin-3; assay: Galectin-3-induced hemagglutination of hen erythrocytes in V-shaped microplates; assay type: cell-based; conditions: for Estimated MIC, inhibition of galectin-3-induced hemagglutination, V-plate: MIC given as concentration interval
Method: Hemagglutination by galectin-3 was investigated in two assays, hemagglutination in V-shaped microplates (96 wells) and hemagglutination in gel cards described by Nowak et al. ([47]) and Lapierre et al. ([48]), respectively. Briefly, fresh hen blood in Alsever's solution was washed with 0.15 M NaCl, whereupon a 4% erythrocyte solution (by volume in PBS) was prepared and incubated with 1 mg/ml trypsin at 37 °C for 1 h. The cells were then washed with 0.15 M NaCl. The erythrocytes were diluted and preserved as a 10% solution in ID-CellStab solution. For the hemagglutination in V-shaped microplates, 1 volume of erythrocyte suspension in PBS (final concentration 0.6%), 1 volume of galectin solution, 1 volume of 0.15 M NaCl with or without the galectin inhibitor, and 1 volume of 1% bovine serum albumin (BSA) in 0.15 M NaCl were added to each well of the microplate. The plate was then shaken vigorously for 90 min at room temperature and then left standing still for at least 90 min before observing the hemagglutination status in each well. […] Each mixture was then transferred to individual gel card wells, whereupon the cards were centrifuged for 10 min at 85 × g in an ID-Centrifuge (DiaMed GmbH) and thereafter photographed and analyzed for hemagglutination.

[3] = system: galectin-3 accumulation in JIMT-1 cells; assay: Inhibition of GPN-induced galectin-3 accumulation around disrupted lysosomes; assay type: cell-based, human; conditions: 1 or 10 μM for 24 h, then 0.3 mM GPN 12 min, positive control
Method: The cells were, after the GPN treatment, quickly washed with PBS and fixed with 3.7% formaldehyde for 15 min before blocking/permeabilization with 1% Tween® 20 and 1–5% BSA in PBS for at least 45 min. […] The cell nuclei were visualized by staining with the DNA-binding fluorescent agent bisbenzimide (Hoechst). The coverslips were finally mounted on glass slides using Mowiol® 4-88 and left at 8 °C overnight to solidify before examination. The samples were imaged with an LSM-510 confocal laser scanning microscope (Carl Zeiss Microscopy GmbH, Oberkochen, Germany) equipped with a Hamamatsu R6357 photomultiplier (Hamamatsu Photonics K.K., Hamamatsu, Japan).

galectin-3 [4] = molecular target: T3, galectin-3; conditions: given as example of low affinity; no reference given; read-out: Kd for galectin-3 canonical carbohydrate-binding site; cited from earlier work
Gal-3 R186S = Gal-3 R186S (Homo sapiens, UniProt P17931, R186S); assay: Fluorescence anisotropy assay, galectin-3 R186S mutant; assay type: binding; conditions: about 1 μM galectin, 0.1 or 0.02 μM probe; read-out: Calculated Kd, Gal-3 R186S
Method: as §1, §2, §3

galectin-1 wild type = molecular target: T8, galectin-1 wild type (UniProt P09382 1-135); assay: fluorescence polarisation; fluorescence anisotropy competition in solution; galectin-1 WT 0.5 uM, tdga saccharide probe 0.1 uM, increasing concentrations of ASF in the presence of the peptide Anginex, with or without beta-mercaptoethanol; conditions: both partners purified
T8 construct: galectin-1, wild type; also called Gal-1; galectin-1 WT; source: called purified galectins in the discussion
T8 sequence (P09382 whole entry): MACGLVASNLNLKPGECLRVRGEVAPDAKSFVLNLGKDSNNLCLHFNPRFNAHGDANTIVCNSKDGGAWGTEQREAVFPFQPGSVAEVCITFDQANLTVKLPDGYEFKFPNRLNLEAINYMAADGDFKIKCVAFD

Chain of galectin-1 (P09382 whole entry, species assumed): as the sequence (P09382 whole entry) above
T3 sequence (P17931 whole entry): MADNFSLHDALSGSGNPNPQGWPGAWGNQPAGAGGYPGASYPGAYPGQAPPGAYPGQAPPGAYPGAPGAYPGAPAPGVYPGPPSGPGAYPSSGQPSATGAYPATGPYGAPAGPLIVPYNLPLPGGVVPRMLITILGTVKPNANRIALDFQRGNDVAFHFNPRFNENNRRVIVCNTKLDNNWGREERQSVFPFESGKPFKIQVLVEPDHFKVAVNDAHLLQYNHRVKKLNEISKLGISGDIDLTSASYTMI
T5 sequence (O00182 17-148 limits assumed): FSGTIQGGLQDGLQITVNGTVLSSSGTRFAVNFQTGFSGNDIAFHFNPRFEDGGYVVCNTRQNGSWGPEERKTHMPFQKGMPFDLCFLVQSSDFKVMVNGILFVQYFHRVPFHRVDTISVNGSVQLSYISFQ
Chain of Gal-3 R186S (P17931 whole entry R186S): as the sequence (P17931 whole entry) above, with R186S counted along it
T7 sequence (O00182 227-355 limits assumed): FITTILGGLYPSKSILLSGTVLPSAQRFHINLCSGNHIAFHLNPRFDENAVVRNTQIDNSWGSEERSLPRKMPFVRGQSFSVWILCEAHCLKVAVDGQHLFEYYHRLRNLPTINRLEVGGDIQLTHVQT

## OC[C@H]1O[C@H](OC[C@H]2OC(O)[C@@H](O)[C@@H](O)[C@@H]2O[C@@H]2O[C@H](CO)[C@@H](O[C@@H]3O[C@H](CO)[C@@H](O)[C@H](O)[C@@H]3O)[C@H](O)[C@@H]2O)[C@H](O)[C@@H](O)[C@H]1O (stereo partly drawn) [6^1-α-Galactosyl-mannotriose, 6^1-α-D-galactosyl-mannotriose]
galectin-2
  Kd: > 10000 µM
Gal-4C
  Kd: > 10000 µM
galectin-3 [1]
  Kd: 3600 µM
galectin-8N
  Kd: 7400 µM
galectin-9N
  Kd: 2400 µM
Gal-4N
  Kd: > 10000 µM

## OC[C@H]1O[C@H](OC[C@H]2O[C@@H](O[C@H]3[C@H](O)[C@H](O)[C@H](O[C@H]4[C@H](O)[C@H](O)[C@H](O[C@H]5[C@H](O)[C@H](O)C(O)O[C@@H]5CO)O[C@@H]4CO)O[C@@H]3CO[C@H]3O[C@H](CO)[C@H](O)[C@H](O)[C@H]3O)[C@@H](O)[C@@H](O)[C@@H]2O[C@@H]2O[C@H](CO)[C@@H](O)[C@H](O)[C@@H]2O)[C@H](O)[C@@H](O)[C@H]1O (stereo partly drawn) [6^3,6^4-α-Galactosyl-mannopentaose, 6^3,6^4-α-D-galactosyl-mannopentaose]
galectin-2
  Kd: 8300 µM
galectin-1
  Kd: 4300 µM
Gal-4C
  Kd: > 10000 µM
galectin-3 [1]
  Kd: 1500 µM
galectin-8N
  Kd: 2500 µM
Gal-9C
  Kd: 2000 µM
galectin-9N
  Kd: 980 µM

## OC[C@H]1O[C@@H](S[C@@H]2O[C@H](CO)[C@H](O)[C@H](n3cc(-c4cccc(F)c4)nn3)[C@H]2O)[C@H](O)[C@@H](n2cc(-c3cccc(F)c3)nn2)[C@H]1O [33DFTG, 3,3′-Dideoxy-3,3′-bis-[4-(3-fluorophenyl)-1H-1,2,3-triazol-1-yl]-1,1′-sulfanediyl-di-β-D-galactopyranoside]
galectin-3 [1]; MIC = inhibitor concentration bringing bound probe to 50%, Fig. 4
  slope of MIC versus galectin-3 concentration, FA assay: around 1
galectin-3 [2]; 1 μM galectin-3
  Estimated MIC, inhibition of galectin-3-induced hemagglutination, V-plate: 0.25 to 0.74 µM
galectin-3 [2]; 5 μM galectin-3
  Estimated MIC, inhibition of galectin-3-induced hemagglutination, V-plate: 2.22 to 6.67 µM
galectin-3 [2]; V-shaped microtiter plates, Fig. 4
  slope of MIC versus galectin-3 concentration, hemagglutination: around 1
[3]
  inhibition of GPN-induced galectin-3 accumulation: inhibit the galectin-3 accumulation

## O=C[C@H](O)[C@@H](O)[C@@H](O)[C@H](O)CO [Gal, galactose]
galectin-3 [4]
  Kd: ~5000 µM

## CO[C@@H]1O[C@H](CO)[C@@H](O[C@@H]2O[C@H](CO)[C@H](O)[C@H](O)[C@H]2O)[C@H](O)[C@H]1O [Methyl β-Lac, reference compound]
galectin-1
  Kd: 170 µM
Gal-4C
  Kd: 2900 µM
Gal-3 R186S
  Kd: 290 µM
galectin-3 [1]
  Kd: 110 µM
Gal-9C
  Kd: 190 µM
Gal-4N
  Kd: 2600 µM

## CO[C@@H]1O[C@H](CO)[C@@H](O[C@@H]2O[C@H](CO)[C@H](O)[C@H](O)[C@H]2O)[C@H](O)[C@H]1NC(C)=O [Methyl β-LacNAc, reference compound]
galectin-1
  Kd: 84 µM
Gal-3 R186S
  Kd: 1200 µM
galectin-3 [1]
  Kd: 52 µM

B1: asialofetuin (natural protein, UniProt P12763 19-359, looked up)
chain: IPLDPVAGYKEPACDDPDTEQAALAAVDYINKHLPRGYKHTLNQIDSVKVWPRRPTGEVYDIEIDTLETTCHVLDPTPLANCSVRQQTQHAVEGDCDIHVLKQDGQFSVLFTKCDSSPDSAEDVRKLCPDCPLLAPLNDSRVVHAVEVALATFNAESNGSYLQLVEISRAQFVPLPVSVSVEFAVAATDCIAKEVVDPTKCNLLAEKQYGFCKGSVIQKALGGEDVRVTCTLFQTQPVIPQPQPDGAEAEAPSAVPDAAGPTPSAAGPPVASVVVGPSVVAVPLPLHRAHYDLRHTFSGVASVESSSGEAFHVGKTPIVGQPSIPGGPVRLCPGRIRYFKI
notes: asialofetuin (ASF), a glycoprotein; Desialylated fetuin; also called ASF
galectin-1 wild type
  fold potentiation by Anginex of the inhibition of galectin-1/probe binding by ASF: ~500 fold
